Results taken from ChEMBL document CHEMBL1201862, “PubChem BioAssay data set” (2004).
Activity calls are given as the source filed them.

Tests used:
[1] = biological target: Luciferin 4-monooxygenase (Photinus pyralis, UniProt P08659); assay: Counter Screen for Luciferase-based Assay Positives. [Related pubchem assays: 620, 618, 411 ]
HT-1080 = assay: cytotoxicity in HT1080 fibrosarcoma cells, cell-based, fluorescence readout (AID 620); assay type: functional; settings: Homo sapiens
[2] = biological target: T1, Microphthalmia-associated transcription factor (Homo sapiens, UniProt O75030); assay: TRPM1 promoter luciferase signal decrease, dose response, MITF inhibitor project, cell-based, SK-MEL-5, cherry-picked, set 3 (AID 493073); assay type: functional
T1 sequence (O75030 whole entry): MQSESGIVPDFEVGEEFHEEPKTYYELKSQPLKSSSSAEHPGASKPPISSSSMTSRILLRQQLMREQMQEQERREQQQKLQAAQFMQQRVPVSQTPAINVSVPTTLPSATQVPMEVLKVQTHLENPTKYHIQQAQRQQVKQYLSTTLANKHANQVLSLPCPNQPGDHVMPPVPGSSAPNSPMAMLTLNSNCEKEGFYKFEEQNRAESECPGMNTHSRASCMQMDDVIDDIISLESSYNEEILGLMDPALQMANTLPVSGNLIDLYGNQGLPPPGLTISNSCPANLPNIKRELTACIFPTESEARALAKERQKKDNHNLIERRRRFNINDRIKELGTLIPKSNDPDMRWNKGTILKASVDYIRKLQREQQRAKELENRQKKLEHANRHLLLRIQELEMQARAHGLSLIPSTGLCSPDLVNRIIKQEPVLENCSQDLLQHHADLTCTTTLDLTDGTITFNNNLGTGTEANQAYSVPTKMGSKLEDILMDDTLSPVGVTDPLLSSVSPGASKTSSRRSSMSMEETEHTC

Paired box protein Pax-8 = Paired box protein Pax-8 (Homo sapiens, UniProt Q06710); assay: inhibitors of PAX8-driven TPO luciferase reporter, dose response, RMG-I cells, cherry-pick (AID 687027); assay type: functional, cell-based;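 also: luciferase reporter driven by Pax8 target thyroperoxidase promoter measured by SteadyGlo luminescence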
Sequence of Paired box protein Pax-8 (Q06710 whole entry): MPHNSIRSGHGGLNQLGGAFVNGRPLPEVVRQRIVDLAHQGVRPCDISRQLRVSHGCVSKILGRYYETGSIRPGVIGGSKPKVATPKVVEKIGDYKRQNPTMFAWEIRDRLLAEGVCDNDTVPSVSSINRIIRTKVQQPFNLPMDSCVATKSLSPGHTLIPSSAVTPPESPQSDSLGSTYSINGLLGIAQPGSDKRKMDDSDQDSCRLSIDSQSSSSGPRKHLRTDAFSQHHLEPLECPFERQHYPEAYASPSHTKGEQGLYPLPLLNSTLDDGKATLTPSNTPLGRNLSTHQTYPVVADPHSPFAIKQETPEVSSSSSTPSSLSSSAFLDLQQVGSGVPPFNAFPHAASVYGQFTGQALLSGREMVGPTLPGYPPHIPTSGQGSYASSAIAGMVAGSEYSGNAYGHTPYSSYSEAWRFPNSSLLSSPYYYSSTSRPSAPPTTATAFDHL

[3] = non-specific cell cytotoxicity, dose response, cytotoxicity control for PAX8 inhibitor project, plate reader, dry powder samples (AID 743021); assay type: functional, cell-based
Estrogen receptor = biological target: T2, Estrogen receptor (Homo sapiens, UniProt P03372);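 also: potency for inhibiting coactivator peptide recruitment to the receptor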
T2 sequence (P03372 whole entry): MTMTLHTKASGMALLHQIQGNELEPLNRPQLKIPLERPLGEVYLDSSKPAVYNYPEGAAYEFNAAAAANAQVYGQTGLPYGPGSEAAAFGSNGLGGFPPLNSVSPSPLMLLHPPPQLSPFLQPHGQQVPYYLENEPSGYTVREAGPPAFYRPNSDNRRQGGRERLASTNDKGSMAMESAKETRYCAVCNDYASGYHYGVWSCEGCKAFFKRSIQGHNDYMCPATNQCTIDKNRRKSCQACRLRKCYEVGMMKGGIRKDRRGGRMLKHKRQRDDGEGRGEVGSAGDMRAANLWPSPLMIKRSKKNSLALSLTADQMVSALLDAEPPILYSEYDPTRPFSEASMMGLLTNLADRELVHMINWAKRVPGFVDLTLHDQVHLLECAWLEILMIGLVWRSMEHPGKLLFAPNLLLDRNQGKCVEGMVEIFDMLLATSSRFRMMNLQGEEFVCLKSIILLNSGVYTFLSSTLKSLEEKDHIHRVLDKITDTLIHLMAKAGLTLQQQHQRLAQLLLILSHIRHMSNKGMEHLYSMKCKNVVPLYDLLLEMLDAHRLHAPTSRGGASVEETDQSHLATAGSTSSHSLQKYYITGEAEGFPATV

[4] = biological target: E3 ubiquitin-protein ligase XIAP (Homo sapiens, UniProt P98170); assay: Counter Screen using XIAP-Bir3 for Chemical Antagonists of Bir1/2 domains of IAP-family anti-apoptotic proteins. [Related pubchem assays (depositor defined):AID1018, AID1449, AID1514, AID1638, AID1749, AID1750, AID488957, AID488963]
Sequence of E3 ubiquitin-protein ligase XIAP (P98170 whole entry): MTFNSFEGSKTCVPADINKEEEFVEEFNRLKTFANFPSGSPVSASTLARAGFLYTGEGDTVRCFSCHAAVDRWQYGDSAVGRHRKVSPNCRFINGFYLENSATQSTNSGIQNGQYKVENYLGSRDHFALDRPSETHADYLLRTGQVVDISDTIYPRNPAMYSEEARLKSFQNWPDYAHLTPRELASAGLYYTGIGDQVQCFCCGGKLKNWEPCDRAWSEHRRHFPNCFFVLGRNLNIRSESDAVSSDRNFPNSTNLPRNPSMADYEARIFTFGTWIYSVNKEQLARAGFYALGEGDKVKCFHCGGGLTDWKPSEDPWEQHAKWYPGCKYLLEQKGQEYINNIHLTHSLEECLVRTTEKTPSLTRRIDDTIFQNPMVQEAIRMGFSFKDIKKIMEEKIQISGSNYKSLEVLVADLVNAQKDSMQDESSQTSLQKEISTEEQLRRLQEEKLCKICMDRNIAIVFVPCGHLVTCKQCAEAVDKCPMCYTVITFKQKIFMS

[5] = biological target: T3, Lysine-specific demethylase 4C (Homo sapiens, UniProt Q9H3R0); assay: GASC-1 (JMJD2C) histone demethylase inhibitors, dose response, biochemical, DELFIA europium, cherry-picked samples (AID 488835); assay type: functional
T3 sequence (Q9H3R0 whole entry): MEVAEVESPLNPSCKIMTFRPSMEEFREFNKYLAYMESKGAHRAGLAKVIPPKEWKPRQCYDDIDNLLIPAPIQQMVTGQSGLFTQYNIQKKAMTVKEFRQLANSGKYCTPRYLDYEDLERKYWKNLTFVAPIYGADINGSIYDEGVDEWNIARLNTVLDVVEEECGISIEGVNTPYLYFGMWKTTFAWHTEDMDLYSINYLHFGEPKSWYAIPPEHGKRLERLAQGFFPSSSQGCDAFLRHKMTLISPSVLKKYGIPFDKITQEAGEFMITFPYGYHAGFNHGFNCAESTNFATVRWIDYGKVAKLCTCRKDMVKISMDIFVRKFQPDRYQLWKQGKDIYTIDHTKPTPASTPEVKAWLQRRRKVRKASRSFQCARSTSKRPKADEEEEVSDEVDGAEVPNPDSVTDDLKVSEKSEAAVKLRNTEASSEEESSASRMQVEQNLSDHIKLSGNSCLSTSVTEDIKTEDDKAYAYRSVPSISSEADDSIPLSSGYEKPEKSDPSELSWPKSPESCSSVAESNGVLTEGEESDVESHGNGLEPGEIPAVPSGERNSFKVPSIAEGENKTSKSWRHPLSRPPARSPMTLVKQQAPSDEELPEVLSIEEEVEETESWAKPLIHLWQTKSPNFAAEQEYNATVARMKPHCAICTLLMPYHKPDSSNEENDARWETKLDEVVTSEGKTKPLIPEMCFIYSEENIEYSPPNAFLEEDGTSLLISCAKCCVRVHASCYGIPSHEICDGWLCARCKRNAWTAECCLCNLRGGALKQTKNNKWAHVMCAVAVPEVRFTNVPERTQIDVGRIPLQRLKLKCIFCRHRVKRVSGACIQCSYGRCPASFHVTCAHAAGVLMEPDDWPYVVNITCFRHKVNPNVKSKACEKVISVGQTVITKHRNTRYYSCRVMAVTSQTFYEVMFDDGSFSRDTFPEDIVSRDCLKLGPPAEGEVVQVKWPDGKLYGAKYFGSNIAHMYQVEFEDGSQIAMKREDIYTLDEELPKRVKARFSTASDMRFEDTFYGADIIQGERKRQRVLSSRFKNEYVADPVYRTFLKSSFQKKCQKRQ

[6] = inhibitors of intracellular T. cruzi replication, confirmation, NIH3T3 host cells, beta-gal luminescence (AID 2044); assay type: functional, cell-based;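 also: intracellular parasites grown in NIH/3T3 mouse fibroblasts as host cells; luminescent beta-galactosidase reporter signal from transgenic T. cruzi replicating inside host cells; inhibitors lower the luminescence signal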
[7] = cytotoxicity toward NIH3T3 fibroblasts, dose response, counter-screen, cell-based, ATP luminescence, mouse fibroblasts (AID 2010); assay type: functional;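 also: cells exposed to compound for about 90 hours before reading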
[8] = biological target: T4, Replicative DNA helicase DnaB (Mycobacterium tuberculosis, UniProt P9WMR3); assay: DnaB intein splicing inhibitors, dose response, biochemical, cell-free fluorescence (AID 449749); assay type: functional
T4 sequence (P9WMR3 whole entry): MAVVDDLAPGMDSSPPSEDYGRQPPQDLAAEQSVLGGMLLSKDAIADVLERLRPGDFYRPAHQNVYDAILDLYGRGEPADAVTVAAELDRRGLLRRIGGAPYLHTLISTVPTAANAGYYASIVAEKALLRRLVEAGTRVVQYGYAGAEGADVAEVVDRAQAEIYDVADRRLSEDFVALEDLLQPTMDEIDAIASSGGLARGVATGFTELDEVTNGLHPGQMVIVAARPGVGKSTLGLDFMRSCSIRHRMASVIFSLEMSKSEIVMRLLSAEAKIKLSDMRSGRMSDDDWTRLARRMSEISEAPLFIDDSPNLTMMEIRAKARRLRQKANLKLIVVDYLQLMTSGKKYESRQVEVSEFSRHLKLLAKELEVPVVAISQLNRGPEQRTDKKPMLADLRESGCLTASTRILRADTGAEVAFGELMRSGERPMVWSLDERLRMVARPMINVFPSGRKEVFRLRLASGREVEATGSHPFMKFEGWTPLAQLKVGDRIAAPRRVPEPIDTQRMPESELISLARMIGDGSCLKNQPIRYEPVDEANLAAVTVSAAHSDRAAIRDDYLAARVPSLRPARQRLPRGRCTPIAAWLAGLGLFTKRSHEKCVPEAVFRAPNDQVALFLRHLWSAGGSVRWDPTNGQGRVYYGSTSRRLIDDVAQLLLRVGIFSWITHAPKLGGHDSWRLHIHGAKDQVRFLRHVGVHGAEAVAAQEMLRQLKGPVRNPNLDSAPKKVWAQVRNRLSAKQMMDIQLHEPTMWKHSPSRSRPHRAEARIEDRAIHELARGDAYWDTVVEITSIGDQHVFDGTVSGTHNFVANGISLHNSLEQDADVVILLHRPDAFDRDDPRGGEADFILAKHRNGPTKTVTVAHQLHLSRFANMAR

Protein RecA = biological target: T5, Protein RecA (Mycobacterium tuberculosis, UniProt P9WHJ3); assay: Fluorescence Cell-Free Homogeneous Dose Retest to Identify Inhibitors of RecA-Intein Splicing Activity. [Related pubchem assays (depositor defined):AID2097, AID2223, AID489010, AID492950]; assay type: functional
T5 sequence (P9WHJ3 whole entry): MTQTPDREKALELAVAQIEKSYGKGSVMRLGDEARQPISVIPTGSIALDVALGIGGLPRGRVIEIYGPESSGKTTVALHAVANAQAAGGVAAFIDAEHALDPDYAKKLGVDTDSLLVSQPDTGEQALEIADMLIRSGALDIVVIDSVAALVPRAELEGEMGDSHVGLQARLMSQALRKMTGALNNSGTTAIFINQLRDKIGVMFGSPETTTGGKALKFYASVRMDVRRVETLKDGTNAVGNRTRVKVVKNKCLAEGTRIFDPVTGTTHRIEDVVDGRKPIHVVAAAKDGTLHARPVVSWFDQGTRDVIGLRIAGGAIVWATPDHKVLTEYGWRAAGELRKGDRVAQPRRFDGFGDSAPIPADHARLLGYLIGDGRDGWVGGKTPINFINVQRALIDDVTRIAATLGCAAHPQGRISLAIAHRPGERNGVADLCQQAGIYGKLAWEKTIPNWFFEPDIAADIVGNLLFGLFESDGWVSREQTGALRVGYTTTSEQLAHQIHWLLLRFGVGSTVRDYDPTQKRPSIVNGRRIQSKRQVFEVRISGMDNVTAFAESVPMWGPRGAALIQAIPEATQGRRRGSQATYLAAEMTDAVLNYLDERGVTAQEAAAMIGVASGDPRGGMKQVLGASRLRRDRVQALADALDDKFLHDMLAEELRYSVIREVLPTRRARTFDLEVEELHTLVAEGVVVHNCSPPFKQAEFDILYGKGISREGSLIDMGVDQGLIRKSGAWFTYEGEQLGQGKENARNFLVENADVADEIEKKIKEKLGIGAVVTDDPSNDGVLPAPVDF

Genome polyprotein = Genome polyprotein (dengue virus type 2, UniProt P29990); assay: Dengue-2 NS5 methyltransferase inhibitors, primary screen, biochemical, confirmation dose response (AID 588689); assay type: functional
Sequence of Genome polyprotein (P29990 2492-3391 limits assumed): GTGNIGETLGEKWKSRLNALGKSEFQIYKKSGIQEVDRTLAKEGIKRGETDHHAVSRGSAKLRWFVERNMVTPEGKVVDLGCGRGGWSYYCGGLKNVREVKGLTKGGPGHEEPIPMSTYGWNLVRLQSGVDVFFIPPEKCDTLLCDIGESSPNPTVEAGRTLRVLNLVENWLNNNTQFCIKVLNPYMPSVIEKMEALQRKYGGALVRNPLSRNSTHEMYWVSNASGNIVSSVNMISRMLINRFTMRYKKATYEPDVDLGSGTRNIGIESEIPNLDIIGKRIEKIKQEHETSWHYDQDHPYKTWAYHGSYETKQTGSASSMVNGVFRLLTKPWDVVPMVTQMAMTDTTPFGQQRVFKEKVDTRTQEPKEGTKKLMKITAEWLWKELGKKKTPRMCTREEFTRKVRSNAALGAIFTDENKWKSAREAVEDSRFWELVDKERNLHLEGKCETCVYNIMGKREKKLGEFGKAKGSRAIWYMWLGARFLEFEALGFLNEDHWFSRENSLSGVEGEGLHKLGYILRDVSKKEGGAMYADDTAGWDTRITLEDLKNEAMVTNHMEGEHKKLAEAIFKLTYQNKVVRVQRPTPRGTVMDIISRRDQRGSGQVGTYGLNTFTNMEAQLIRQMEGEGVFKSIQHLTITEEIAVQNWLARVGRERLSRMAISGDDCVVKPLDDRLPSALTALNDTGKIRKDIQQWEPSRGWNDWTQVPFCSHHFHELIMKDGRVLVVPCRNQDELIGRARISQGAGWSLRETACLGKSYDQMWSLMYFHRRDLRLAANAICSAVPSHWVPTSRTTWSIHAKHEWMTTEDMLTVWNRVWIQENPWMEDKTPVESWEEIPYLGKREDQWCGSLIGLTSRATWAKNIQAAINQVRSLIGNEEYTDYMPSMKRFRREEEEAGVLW

[9] = biological target: Intestinal-type alkaline phosphatase (Mus musculus, UniProt P24822); assay: PubChem AID 488785; assay type: functional
Sequence of Intestinal-type alkaline phosphatase (Mus musculus, UniProt P24822) (P24822 whole entry): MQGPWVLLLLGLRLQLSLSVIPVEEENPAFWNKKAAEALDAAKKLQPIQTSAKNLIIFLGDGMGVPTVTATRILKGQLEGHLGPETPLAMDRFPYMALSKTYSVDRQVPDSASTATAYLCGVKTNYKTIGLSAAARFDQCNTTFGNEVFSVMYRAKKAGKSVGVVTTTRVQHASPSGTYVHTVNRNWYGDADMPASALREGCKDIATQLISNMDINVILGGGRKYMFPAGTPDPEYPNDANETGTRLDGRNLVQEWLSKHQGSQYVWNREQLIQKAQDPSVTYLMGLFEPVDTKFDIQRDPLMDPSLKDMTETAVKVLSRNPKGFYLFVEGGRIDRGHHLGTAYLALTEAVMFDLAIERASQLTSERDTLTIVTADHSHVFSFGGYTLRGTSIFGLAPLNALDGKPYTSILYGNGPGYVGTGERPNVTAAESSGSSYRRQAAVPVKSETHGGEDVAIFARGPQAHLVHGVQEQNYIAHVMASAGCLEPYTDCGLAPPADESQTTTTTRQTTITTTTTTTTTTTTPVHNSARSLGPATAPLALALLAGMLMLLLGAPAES

[10] = biological target: T6, Alkaline phosphatase, tissue-nonspecific isozyme (Homo sapiens, UniProt P05186); assay: TNAP enzyme inhibition by screening hits, dose response, selectivity assay for mouse IAP inhibitor project, biochemical, human TNAP, uHTS hits (AID 488906); assay type: functional
T6 sequence (P05186 whole entry): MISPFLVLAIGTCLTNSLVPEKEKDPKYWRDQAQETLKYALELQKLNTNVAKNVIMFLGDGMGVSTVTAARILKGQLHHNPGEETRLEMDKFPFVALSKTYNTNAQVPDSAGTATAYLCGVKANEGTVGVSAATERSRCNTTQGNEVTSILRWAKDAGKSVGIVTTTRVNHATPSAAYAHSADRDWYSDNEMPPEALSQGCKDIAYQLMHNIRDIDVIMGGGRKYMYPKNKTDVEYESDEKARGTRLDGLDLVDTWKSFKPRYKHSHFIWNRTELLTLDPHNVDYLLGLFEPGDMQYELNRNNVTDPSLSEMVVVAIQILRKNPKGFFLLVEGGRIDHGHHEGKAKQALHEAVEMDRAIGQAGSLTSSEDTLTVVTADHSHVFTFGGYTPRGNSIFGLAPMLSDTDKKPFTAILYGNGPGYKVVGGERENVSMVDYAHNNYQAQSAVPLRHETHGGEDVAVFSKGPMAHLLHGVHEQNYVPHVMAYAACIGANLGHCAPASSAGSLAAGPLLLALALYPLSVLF

[11] = biological target: Intestinal-type alkaline phosphatase (Homo sapiens, UniProt P09923); assay: inhibition of human intestinal alkaline phosphatase – biochemical, dose response (AID 488876); assay type: functional
Sequence of Intestinal-type alkaline phosphatase (Homo sapiens, UniProt P09923) (P09923 whole entry): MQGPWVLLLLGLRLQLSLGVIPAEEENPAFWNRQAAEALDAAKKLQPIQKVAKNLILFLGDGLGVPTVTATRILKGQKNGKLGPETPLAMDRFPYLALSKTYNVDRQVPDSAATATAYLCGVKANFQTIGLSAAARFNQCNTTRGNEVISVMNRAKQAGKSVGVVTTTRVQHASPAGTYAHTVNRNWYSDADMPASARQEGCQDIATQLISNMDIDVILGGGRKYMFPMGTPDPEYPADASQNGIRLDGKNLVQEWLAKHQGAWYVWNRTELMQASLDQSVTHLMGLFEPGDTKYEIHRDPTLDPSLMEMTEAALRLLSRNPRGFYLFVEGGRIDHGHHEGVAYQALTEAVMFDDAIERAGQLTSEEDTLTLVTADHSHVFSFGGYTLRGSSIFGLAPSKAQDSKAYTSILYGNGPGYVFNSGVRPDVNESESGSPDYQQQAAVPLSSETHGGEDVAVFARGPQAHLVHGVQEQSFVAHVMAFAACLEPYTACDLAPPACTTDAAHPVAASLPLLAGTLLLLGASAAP

Sequence of Luciferin 4-monooxygenase (P08659 whole entry): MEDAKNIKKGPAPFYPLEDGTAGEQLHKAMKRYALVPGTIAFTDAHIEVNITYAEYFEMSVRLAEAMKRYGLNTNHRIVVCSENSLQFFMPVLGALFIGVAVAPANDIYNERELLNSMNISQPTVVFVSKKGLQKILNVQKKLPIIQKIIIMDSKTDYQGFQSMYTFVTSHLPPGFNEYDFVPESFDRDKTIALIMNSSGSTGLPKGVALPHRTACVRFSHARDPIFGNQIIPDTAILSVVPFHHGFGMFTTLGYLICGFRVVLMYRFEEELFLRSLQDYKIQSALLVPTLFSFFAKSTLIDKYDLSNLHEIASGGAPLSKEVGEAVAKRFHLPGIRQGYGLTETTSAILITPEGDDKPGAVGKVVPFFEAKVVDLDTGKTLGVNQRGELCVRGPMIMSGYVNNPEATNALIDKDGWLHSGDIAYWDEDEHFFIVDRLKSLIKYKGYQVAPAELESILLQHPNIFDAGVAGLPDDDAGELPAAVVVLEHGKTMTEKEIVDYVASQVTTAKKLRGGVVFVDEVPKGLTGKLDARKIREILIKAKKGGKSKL

SMILES: Cc1cc(C)c2c(N)c(C(=O)Nc3ncc(C)s3)sc2n1
- EC50 [1]: < 0.2 µM (active)
- EC50 (HT-1080): > 50 µM (not active)
- AC50 [2]: 1.09 µM (active)
- AC50 (Paired box protein Pax-8): 2.92 µM (active)
- AC50 [3]: 36.7 µM (active)

SMILES: O=C(NCc1ccc(Cl)cc1)c1cc(-c2cccs2)on1
- IC50 (Estrogen receptor): > 50 µM (not active)
- IC50 [4]: > 20 µM (inactive)

SMILES: Nc1c(Cl)ncnc1NCc1cccnc1
- AC50 [5]: 5.63 µM (active)

SMILES: C[C@H]1CCC[C@]2(C)C[C@H]3OC(=O)C(CN4CCCCCC4)[C@H]3C=C12 (stereo not given in full)
- AC50 [2]: 13.9 µM (active)

SMILES: CCOC(=O)c1nnn(-c2ccc([N+](=O)[O-])cc2[N+](=O)[O-])c1C
- EC50 [6]: 0.647 µM (active)
- EC50 [7]: > 60 µM (not active)
- AC50 [2]: 8.85 µM (active)

SMILES: CC1=NN(c2ccc(C)cc2C)C(=O)C1C(c1ccccc1)C1C(=O)N(c2ccc(C)cc2C)N=C1C (stereo not given)
- AC50 [5]: 16.3 µM (active)
- AC50 [8]: 0.523 µM (active)
- EC50 (Protein RecA): 0.431 µM (active)
- IC50 (Genome polyprotein): 48.8 µM (active)

SMILES: O=C(CCNS(=O)(=O)c1ccc2[nH]c(=O)oc2c1)Nc1ccccc1
- IC50 [9]: 2.4 µM (active)
- IC50 [10]: 17.8 µM (active)
- IC50 [11]: 26.9 µM (active)

SMILES: Cn1c(/N=C/c2cc(Cl)ccc2O)nc2ccccc21
- AC50 [5]: 10.4 µM (active)
